{"source": "patent US20250136931A1", "about": "“AN IMPROVED CELL CULTURE PROCESS FOR PRODUCTION OF PROTEIN” (KASHIV BIOSCIENCES, LLC, priority 2022, published 2025)", "key": {"[1]": {"test_system": "host cells producing fusion protein (CTLA4Ig)", "test": "Fed-batch bioreactor (Ambr250) cell culture for fusion protein (CTLA4Ig) production, control process spiked with Mito-TEMPO", "assay_type": "cell-based", "experimental": "The cell bank vial was thawed in Shake flask 125 (SF125) into the seed media and cell counts were checked. The incubation was continued for 3-5 days during which cells reached the optimum cell density for subculture. The cells were subsequently expanded in Shake flask 500 (SF500) to generate sufficient inoculum for Ambr®250 bioreactors (250 mL).\nProduction Fed batch bioreactor run was executed at Ambr®250 bioreactor using process parameters as mentioned below.\nThe standard fed-batch culture process involved cell culturing for 12 days and was harvested depending upon the culture cell viability.\nWhen the control process was spiked with antioxidant Mito Tempo (total 25 nM added throughout the culturing period) 5 nM each on day 3, 5, 7, 9, 11. It was observed that the harvested protein titer was improved by 28% when analysed by Protein-A HPLC method. It was also observed that overall oxidation of the product was decreased by 18% when analysed by LC-MS method. The overall peak viable cell density of the culture was also found to have increased by 11%."}, "[2]": {"test_system": "host cells producing antibody", "test": "Fed-batch bioreactor (Ambr250) cell culture for antibody production, control process spiked with MitoTempo", "assay_type": "cell-based", "settings": "total 25 nM, 5 nM each on day 3, 5, 7, 9, 11", "experimental": "The cell bank vial is thawed in Shake flask 125 (SF125) into the seed media and cell counts are checked. The incubation is continued for 3-5 days during which cells reached the optimum cell density for subculture. The cells are subsequently expanded in Shake flask 500 (SF500) to generate sufficient inoculum for Ambr®250 bioreactors (250 mL).\nProduction Fed batch bioreactor run is executed at Ambr®250 bioreactor using process parameters as mentioned below.\nThe standard fed-batch culture process involved cell culturing for 12 days and it is harvested depending upon the culture cell viability.\nWhen the control process is spiked with antioxidant MitoTempo (total 25 nM added throughout the culturing period) 5 nM each on day 3, 5, 7, 9, 11. It is observed that the harvested protein titer is improved when analysed by Protein-A HPLC method. It is also observed that overall oxidation of the product is decreased when analysed by LC-MS method. The overall peak viable cell density of the culture is also found to have increased."}, "[3]": {"settings": "CTLA4Ig culture, total 25 nM, 5 nM each on day 3, 5, 7, 9, 11"}, "[4]": {"settings": "CTLA4Ig fed-batch culture, 12 days, 5 nM each on Day 3, 5, 7, 9, 11 (total 25 nM)"}}}
{"smiles": "CC1(C)CC(NC(=O)C[P+](c2ccccc2)(c2ccccc2)c2ccccc2)CC(C)(C)N1[O]", "note": "[MitoTempo, Mito-TEMPO]", "values": [{"measurement": "harvested protein titer improved (Protein-A HPLC) versus control process", "setting": "[1]; [3]", "value": 28, "unit": "%"}, {"measurement": "overall oxidation of the product decreased (LC-MS) versus control process", "setting": "[1]; [3]", "value": 18, "unit": "%"}, {"measurement": "overall peak viable cell density increased versus control process", "setting": "[1]; [3]", "value": 11, "unit": "%"}, {"measurement": "Harvest Oxidation (%) by LC-MS", "setting": "[1]; [4]", "value": 12.2, "unit": "%"}, {"measurement": "Harvest Titer by Protein-A HPLC", "setting": "[1]; [4]", "value": 2.7, "unit": "g/L"}, {"measurement": "Peak cell density by Automated cell counter", "setting": "[1]; [4]", "value": "18.8 ×10^6 cells/mL"}, {"measurement": "harvested protein titer (Protein-A HPLC) versus control process", "setting": "[2]", "value": "improved"}, {"measurement": "overall oxidation of the product (LC-MS) versus control process", "setting": "[2]", "value": "decreased"}, {"measurement": "overall peak viable cell density of the culture versus control process", "setting": "[2]", "value": "increased"}]}
